From patent US20040086942A1, “Ige receptor antagonists” (priority 2003, published 2004)
Where two headings read alike, the source gives them in different places. Where a SMILES comes first, the peptide text is derived from it. Bridges are numbered along the chain shown (N, C = ends). [ ]: non-standard residue; d: D form. 2Nal = N[C@@H](Cc1ccc2ccccc2c1)C(=O)O; Pip = O=C(O)[C@@H]1CCCCN1

How the values were obtained:
[1] = 2D NMR structural score versus reference peptide; type: physicochemical; parameters: key to Struct. Score: +++ indicates the peptide is structured similarly to IGE063 (SEQ ID NO:49); + indicates the peptide is structured similarly to IGE063 (SEQ ID NO:49), but is less stable; −/+ indicates the peptide has some elements of stable structure, but the conformation differs from the reference structure (e.g., a different turn type is evident); − indicates the peptide is predominantly unstructured in aqueous solution; key to Structure Score: +++, peptide structurally similar to reference; +, structurally similar to reference but significantly less stable; +/−, peptide has some elements of stable structure, but the conformation differs from the reference structure; −, peptide is predominantly unstructured; *peptide IGE037 (SEQ ID NO:128) was initially unstructured (monomeric form), but became structured after spontaneous dimer formation; settings: for Structure Score: reference IGE134; for Struct. Score: reference IGE063
Description: Peptides were evaluated by 2D NMR spectroscopy to assess the effect of substitutions on the three-dimensional structure of the peptide analog. All peptides with a structural score indicated in Table 5 were analyzed by 2D NMR spectroscopy; backbone ^1H resonances were assigned and ^3JHN-Hα coupling constants were measured and compared to the reference peptide (IGE063, SEQ ID NO:49; see Example 5). Peptides are defined to be of similar structure to the reference peptide provided chemical shifts, coupling constants, and NOEs are consistent with that structure.
A structural score was assigned to peptides analyzed by 2D NMR spectroscopy. For each of these peptides, backbone ^1H resonances have been assigned, and the ^3JHN-Ha coupling constants have been measured and compared to the reference peptide (i.e., IGE134 (SEQ ID NOS:155, 171)). Peptides are defined to be of similar structure to the reference peptide provided. chemical shifts, coupling constants, and NOEs are consistent with that structure.

[2] = target: T1, alpha subunit of the human FcεRI receptor (Homo sapiens, UniProt P12319); assay: cell-based 125I-IgE binding inhibition assay on CHO FcεRI+ cells
T1 construct: expressed in transfected cells; host or cells: Chinese hamster ovary (CHO FcεRI+) cells
T1 sequence (P12319 26-257): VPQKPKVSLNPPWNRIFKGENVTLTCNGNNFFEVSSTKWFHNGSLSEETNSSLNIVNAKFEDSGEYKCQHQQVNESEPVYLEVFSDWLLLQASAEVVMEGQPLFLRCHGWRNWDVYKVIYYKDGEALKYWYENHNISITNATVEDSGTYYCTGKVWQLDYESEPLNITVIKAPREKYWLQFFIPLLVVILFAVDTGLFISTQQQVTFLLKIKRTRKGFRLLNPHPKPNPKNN
Description: . The following day the cells were rinsed three times with PBS and then once with F12/DMEM. Peptide stocks were reconstituted in 100 mM Hepes buffered water, pH 7.2, at a concentration of 5 mg/mL. Working concentrations of the peptide were diluted in assay buffer (see below). 75 ul, of a desired concentration of peptide was added to the top row of a separate 96 well microtiter plate and serially diluted 1:3 in 50 uL of the assay buffer (F12/DMEM, 1% BSA, 0.05% NaN3 and […] Hepes pH 7.2). Starting concentrations ranged from 50-500 uM. Next, 50 uL of the diluted peptide was transferred to the 96 microtiter well plate containing a monolayer of CHO FcεRI+ cells. After a 1 hour incubation at room temperature, 50 uL of ^125I-IgE (1.5 nM) was added to each well and incubated for an additional 45-60 minutes at 4° C. followed by 5 washes with 200 uL of assay buffer. Cells were solubilized with 200 uL of 1 N NaOH and transferred to a 96 microtiter tube for counting in a gamma counter to determine counts bound. The data were plotted using KaleidaGraph 3.0 and fitted using 4-parameter fits. IC50 values were determined for each peptide.
Six peptides based on selected clones from library #516 were synthesized and assayed for the ability to inhibit the binding of ^125I-IgE to a Chinese hamster ovary cell line expressing the alpha subunit of the IgE high affinity receptor, FcεRI. The peptides were synthesized as nine residue monomers and oxidized to allow the formation of a disulfide bridge resulting in a cyclic peptide. The size of each peptide was confirmed by mass spectrometry.

[3] = IGE037: initially, read-out: IC50
[4] = inhibition of labeled IgE-binding to CHO FcεRI+ cells, read-out: Mean IC50(uM) ± S.D.

Row | Compound | Struct. Score [1] | IC50 [2, 4] [µM] | further results
1 | CC(=O)N[C@@H](C)C(=O)N[C@@H](CC(C)C)C(=O)N[C@H]1CSSC[C@@H](C(=O)N[C@@H](Cc2ccc(O)cc2)C(=O)N[C@H](C(N)=O)C(C)C)NC(=O)[C@H](C(C)C)NC(=O)[C@H](C)NC(=O)[C@@H]2CCCN2C1=O [IGE038, Ac-ALCPAVCYV-nh2] (Ac-ALCPAVCYV-NH2; disulfide 3-7) |  |  | Structure Score [1]: −; IC50 [2, 3]: > 500 µM
2 | CSCC[C@H](NC(=O)[C@@H]1CSSC[C@H](NC(=O)[C@H](CCCNC(=N)N)NC(=O)[C@@H]2CCCN2C(=O)[C@H](CC(C)C)NC(=O)[C@H](CC(N)=O)NC(C)=O)C(=O)N[C@@H]([C@@H](C)O)C(=O)N[C@@H](CCC(=O)O)C(=O)NCC(=O)N2CCC[C@H]2C(=O)N[C@@H](Cc2c[nH]c3ccccc23)C(=O)NCC(=O)N[C@@H](Cc2c[nH]c3ccccc23)C(=O)N[C@@H](C(C)C)C(=O)N1)C(=O)O [IGE063, Ac-NLPRCTEGPWGWVCM] (Ac-NLPRCTEGPWGWVCM-OH; disulfide 5-14) | +++ | 1.8 ± 0.7 | IC50 [2, 3]: ~1 µM
3 | CSCC[C@H](NC(=O)[C@@H]1CSSC[C@H](NC(=O)[C@H](CCCNC(=N)N)NC(=O)[C@@H]2CCCN2C(=O)[C@H](CC(C)C)NC(=O)[C@H](CC(N)=O)NC(C)=O)C(=O)N[C@@H]([C@@H](C)O)C(=O)N[C@@H](CCC(=O)O)C(=O)NCC(=O)N2CCC[C@H]2C(=O)N[C@@H](Cc2c[nH]c3ccccc23)C(=O)NCC(=O)N[C@@H](Cc2c[nH]c3ccccc23)C(=O)N[C@@H](C(C)C)C(=O)N1)C(=O)N[C@@H](C)C(=O)N[C@@H](CC(=O)O)C(=O)N[C@@H](CC(=O)O)C(N)=O [IGE031, Ac-NLPRCTEGPWGWVCMADD-nh2] (Ac-NLPRCTEGPWGWVCMADD-NH2; disulfide 5-14) | +++ | 1.1 ± 0.7 | 
4 | CSCC[C@H](NC(=O)[C@@H]1CSSC[C@H](NC(=O)[C@H](CCCNC(=N)N)NC(=O)[C@@H]2CCCN2C(=O)[C@H](CC(C)C)NC(=O)[C@@H](N)CC(N)=O)C(=O)N[C@@H]([C@@H](C)O)C(=O)N[C@@H](CCC(=O)O)C(=O)NCC(=O)N2CCC[C@H]2C(=O)N[C@@H](Cc2c[nH]c3ccccc23)C(=O)N[C@@H](C)C(=O)N[C@@H](Cc2c[nH]c3ccccc23)C(=O)N[C@@H](C(C)C)C(=O)N1)C(=O)O [IGE074, NLPRCTEGPWAWVCM] (H-NLPRCTEGPWAWVCM-OH; disulfide 5-14) | + |  | fold reduction in inhibition/binding ([2]; truncations and alanine substitutions of IGE063): 30 fold
5 | CSCC[C@H](NC(=O)[C@@H]1CSSC[C@H](NC(=O)[C@H](CCCNC(=N)N)NC(=O)[C@@H]2CCCN2C(=O)[C@H](CC(C)C)NC(=O)[C@@H](N)CC(N)=O)C(=O)N[C@@H]([C@@H](C)O)C(=O)N[C@@H](CCC(=O)O)C(=O)NCC(=O)N2CCC[C@H]2C(=O)N[C@@H](Cc2c[nH]c3ccccc23)C(=O)NCC(=O)N[C@@H](Cc2c[nH]c3ccccc23)C(=O)N[C@@H](C(C)C)C(=O)N1)C(=O)O [IGE062, NLPRCTEGPWGWVCM] (H-NLPRCTEGPWGWVCM-OH; disulfide 5-14; N-terminus and C-terminus assumed) | +++ | 1 ± 0.6 | 
6 | CC(C)C[C@@H]1NC(=O)[C@H](C)NC(=O)[C@H](Cc2c[nH]cn2)NC(=O)CNC(=O)CNC(=O)[C@H](C(C)C)NC(=O)[C@H](Cc2ccc(O)cc2)NC(=O)[C@@H]2CSSC[C@H](NC1=O)C(=O)N[C@@H](C)C(=O)N[C@@H](CC(=O)O)C(=O)N[C@@H](C(C)C)C(=O)N[C@H](C(=O)N[C@@H](Cc1ccc(O)cc1)C(=O)N[C@H](C(=O)NCC(=O)N[C@@H](CCCNC(=N)N)C(=O)O)C(C)C)CSSC[C@H](NC(=O)[C@H](CCC(N)=O)NC(=O)[C@@H](N)C(C)C)C(=O)N1CCC[C@H]1C(=O)N[C@@H](Cc1c[nH]cn1)C(=O)N[C@@H](Cc1ccccc1)C(=O)N2 [IGE143] (H-VQCPHFCYVGGHALCADVCYVGR-OH; disulfide 3-19, 7-15 (inferred)) |  |  | Structure Score [1]: +++

The next lines start with results.

Row | Struct. Score [1] | IC50 [2, 4] [µM] | Compound | further results
7 | +++ | 1.7 | CSCC[C@H](NC(=O)[C@@H]1CSSC[C@H](NC(=O)[C@H](CCCNC(=N)N)NC(=O)[C@@H]2CCCN2C(=O)[C@H](CC(C)C)NC(=O)[C@H](CC(N)=O)NC(C)=O)C(=O)N[C@@H]([C@@H](C)O)C(=O)N[C@@H](CCC(=O)O)C(=O)NCC(=O)N2CCC[C@H]2C(=O)N[C@@H](Cc2c[nH]c3ccccc23)C(=O)N[C@H](CCC(=O)O)C(=O)N[C@@H](Cc2c[nH]c3ccccc23)C(=O)N[C@@H](C(C)C)C(=O)N1)C(=O)O [IGE114, Ac-NLPRCTEGPWeWVCM] (Ac-NLPRCTEGPW[dE]WVCM-OH; disulfide 5-14) | 
8 | +++ |  | CSCC[C@H](NC(=O)[C@@H]1CSSC[C@H](NC(=O)[C@H](CCCNC(=N)N)NC(=O)[C@@H]2CCCN2C(=O)[C@H](CC(C)C)NC(=O)[C@H](CC(N)=O)NC(C)=O)C(=O)N[C@@H]([C@@H](C)O)C(=O)N[C@@H](CCC(=O)O)C(=O)NCC(=O)N2CCCC[C@H]2C(=O)N[C@@H](Cc2c[nH]c3ccccc23)C(=O)NCC(=O)N[C@@H](Cc2c[nH]c3ccccc23)C(=O)N[C@@H](C(C)C)C(=O)N1)C(=O)O [IGE095, Ac-NLPRCTEG(Pip)WGWVCM] (Ac-NLPRCTEG[Pip]WGWVCM-OH; disulfide 5-14; C-terminus assumed) | 
9 | − |  | CSCC[C@H](NC(=O)[C@H]1CSSC[C@H](NC(=O)[C@H](CCCNC(=N)N)NC(=O)[C@@H]2CCCN2C(=O)[C@H](CC(C)C)NC(=O)[C@H](CC(N)=O)NC(C)=O)C(=O)N[C@@H]([C@@H](C)O)C(=O)N[C@@H](CCC(=O)O)C(=O)NCC(=O)N2CCC[C@H]2C(=O)N[C@@H](Cc2c[nH]c3ccccc23)C(=O)NCC(=O)N[C@@H](Cc2c[nH]c3ccccc23)C(=O)N[C@@H](C(C)C)C(=O)N1)C(=O)O [IGE104, Ac-NLPRCTEGPWGWVcM] (Ac-NLPRCTEGPWGWV[dC]M-OH; disulfide 5-14; C-terminus assumed) | 
10 | +++ |  | CSCC[C@H](NC(=O)[C@@H]1CSSC[C@H](NC(=O)[C@H](CCCNC(=N)N)NC(=O)[C@@H]2CCCN2C(=O)[C@H](CC(C)C)NC(=O)[C@H](CC(N)=O)NC(C)=O)C(=O)N[C@@H]([C@@H](C)O)C(=O)N[C@@H](CCC(=O)O)C(=O)NCC(=O)N2CCC[C@H]2C(=O)N[C@@H](Cc2ccc3ccccc3c2)C(=O)NCC(=O)N[C@@H](Cc2c[nH]c3ccccc23)C(=O)N[C@@H](C(C)C)C(=O)N1)C(=O)O [IGE103, Ac-NLPRCTEGP(npA)GWVCM] (Ac-NLPRCTEGP[2Nal]GWVCM-OH; disulfide 5-14; C-terminus assumed) | 
11 | +++ |  | CSCC[C@H](NC(=O)[C@@H]1CSSC[C@H](NC(=O)[C@H](CCCNC(=N)N)NC(=O)[C@@H]2CCCN2C(=O)[C@H](CC(C)C)NC(=O)[C@@H](N)CC(N)=O)C(=O)N[C@@H]([C@@H](C)O)C(=O)N[C@@H](CCC(=O)O)C(=O)NCC(=O)N2CCC[C@H]2C(=O)N[C@@H](Cc2c[nH]c3ccccc23)C(=O)NCC(=O)N[C@@H](Cc2c[nH]c3ccccc23)C(=O)N[C@@H](Cc2ccc(O)cc2)C(=O)N1)C(=O)O [IGE077, NLPRCTEGPWGWYCM] (H-NLPRCTEGPWGWYCM-OH; disulfide 5-14; N-terminus and C-terminus assumed) | 
12 | + |  | Ac-NLPRCTEGPWGWVCM [IGE108] | 
13 | +++ |  | CSCC[C@H](NC(=O)[C@@H]1CSSC[C@H](NC(=O)[C@H](CCCNC(=N)N)NC(=O)[C@@H]2CCCN2C(=O)[C@H](CC(C)C)NC(=O)[C@H](CC(N)=O)NC(C)=O)C(=O)N[C@@H]([C@@H](C)O)C(=O)N[C@@H](CCC(=O)O)C(=O)NCC(=O)N2CCC[C@H]2C(=O)N[C@@H](C(C)C)C(=O)NCC(=O)N[C@@H](Cc2c[nH]c3ccccc23)C(=O)N[C@@H](C(C)C)C(=O)N1)C(=O)O [IGE106, Ac-NLPRCTEGPVGWVCM] (Ac-NLPRCTEGPVGWVCM-OH; disulfide 5-14; C-terminus assumed) | 
